According to patent publication US11547678B2, “Aqueous pharmaceutical formulation of tapentadol for oral administration” (GRÜNENTHAL GMBH, priority 2011, dated 2023):

Legend:
[1] = Antimicrobial robustness testing of 4 mg/mL oral solution, higher sodium benzoate: USP and Pharm. Eur. requirements (Example 4); assay type: cell-based; details: 2.36 mg/mL sodium benzoate (corresponding to 2 mg/mL benzoic acid)
Protocol: Antimicrobial Robustness Testing of 4 mg/mL Tapentadol Oral Solution (Higher Concentration of Sodium Benzoate)
Based on the obtained results the test was repeated using a formulation containing a higher preservative concentration of 2.36 mg/mL instead of 1.77 mg/mL sodium benzoate.
The above study of example 3 was repeated using a formulation of 4 mg/mL tapentadol and 2.36 mg/mL sodium benzoate (corresponding to 2 mg/mL benzoic acid). The antimicrobial activity of the formulation was determined with 100% at target pH of 4 and with 80% of sodium benzoate at the pH limits of 3.5 and 4.5. The following compositions of the formulation were used for the antimicrobial robustness testing (Table 4).

Aspergillus niger = assay: Activity against Aspergillus niger at lower drug concentrations, pH 4.0 and 5.0 (Example 1); assay type: cell-based
From the text: Determination of Antimicrobial Effective Concentration of Tapentadol Hydrochloride
(§1) The activity against mold (Aspergillus niger) is lower but still within the limits of the requirements of the Pharm. Eur. The activity of tapentadol hydrochloride against Aspergillus niger has been evaluated at lower drug concentrations and at pH 4.0 and 5.0 in formulations containing citric acid as buffer system and hydrochloric acid and sodium hydroxide to adjust the pH.
The requirements of Pharm. Eur. for oral solutions (log reduction of 1 after 14 and no increase after 28 days concerning mold A. niger) are met at pH 4 for tapentadol concentrations of equal or above 8 mg/mL and at pH 5 for concentrations equal or above to 4 mg/m L.

[2] = Initial studies: antimicrobial activity of tapentadol hydrochloride; assay type: cell-based; details: 10 mg/mL free base
From the text: as §1

yeast = assay: Initial studies: activity against yeast; assay type: cell-based; details: 10 mg/mL free base
mold (Aspergillus niger) = assay: Initial studies: activity against mold; assay type: cell-based; details: 10 mg/mL free base
From the text: as §1

[3] = Antimicrobial robustness testing of 4 mg/mL oral solution, lower sodium benzoate: USP and Pharm. Eur. requirements (Example 3); assay type: cell-based; details: 4 mg/mL solution
Protocol: Antimicrobial Robustness Testing of 4 mg/mL Tapentadol Oral Solution (Lower Concentration of Sodium Benzoate)
The 4 mg/mL solution of tapentadol has also been subjected to an antimicrobial robustness testing. […] Therefore, sodium benzoate has been used as a preservative in the formulation. The antimicrobial activity of the formulation was determined with 100% at target pH of 4 and with 80% of sodium benzoate at the pH limits of 3.5 and 4.5. The following compositions of the formulation were used for the antimicrobial robustness testing (Table 3).

[4] = Chemical stability of 4 and 20 mg/mL oral solution (Example 7); assay type: physicochemical; details: 3 months storage
Protocol: Chemical Stability of 4 and 20 mg/mL Tapentadol Oral Solution
To investigate the chemical stability of tapentadol oral solutions in different concentrations (4 and 20 mg/mL), stability studies were performed over 3 months evaluating the following parameters appearance, assay of tapentadol, degradation, assay preservative (only for the 4 mg/mL formulation) and pH at 25° C./60% RH, 40° C./75% RH and 50° C. In addition, for the 4 mg/mL solution 2 weeks cycling studies (from −15° C. to 30° C. as well as from 5° C. to 40° C.) were performed.

| SMILES | antimicrobial efficacy for a 4 mg/mL tapentadol hydrochloride oral solution [1] | antimicrobial activity at pH 5 compared with pH 4 (Aspergillus niger; after 14 and 28 days) | concentration limit for antimicrobial effectiveness of tapentadol (Aspergillus niger; depending on the pH (4 to 5)) [mg/mL] | tapentadol concentration at which requirements of Pharm. Eur. for oral solutions concerning mold A. niger are met (Aspergillus niger; pH 5, log reduction of 1 after 14 and no increase after 28 days) [mg/mL] | antimicrobial activity [2] | activity against yeast (yeast) | activity against mold (Aspergillus niger) (mold (Aspergillus niger)) | antimicrobial effect of the drug substance [3] | stability of the API in solution [4] |
| --- | --- | --- | --- | --- | --- | --- | --- | --- | --- |
| O=C([O-])c1ccccc1.[Na+] [sodium benzoate] | sufficient |  |  |  |  |  |  |  |  |
| CC[C@@H](c1cccc(O)c1)[C@@H](C)CN(C)C.Cl [tapentadol hydrochloride, (1R,2R)-3-(3-dimethylamino-1-ethyl-2-methyl-propyl)-phenol hydrochloride] |  | better antimicrobial activity | 4 to 8 | ≥ 4 | high | high | lower but still within the limits of the requirements of the Pharm. Eur. | not sufficiently pronounced | good stability |
